This data set is described as follows: RP, Thermo Scientific Acclaim RSLC 120 C18, 100 × 2.1 mm, 2.2 µm, 30 °C, 0.2 mL/min, estimated dead time 1.1 min; A: 90% water + 10% methanol + 0.01% formic acid + 5 mM ammonium formate, pH 3.61; B: methanol + 0.01% formic acid + 5 mM ammonium formate, pH 3.61; gradient (min/%B) 0/1 1/1 2/39 13/99.9 15/99.9 15.1/1 20.1/1. As to conditions: stereoisomer not certain.

Turning to `NC(=O)c1c(Cl)c(Cl)cc(C(=O)O)c1Cl`, the LC retention time was 3.88 min. Take `CC12CCC3c4ccc(O)c(O)c4CCC3C1CCC2=O` (stereo not given): the LC retention time was 8.69 min. Consider `CC12CCC3c4cc(O)c(O)cc4CCC3C1CCC2=O` (stereo not given), for which the LC retention time is 8.56 min.

Consider `CC12CCC3c4ccc(O)cc4CCC3C1CCC2O` (stereo not given), for which the LC retention time is 12 min. For `Cc1cccc(C)c1NC(=O)CS(=O)(=O)O`, the LC retention time was 9.34 min. As for `CCc1c(C(=O)NCCc2ccc(N3CCCCC3)cc2)[nH]c2ccc(Cl)cc12`, the figure is 12.7 min; as for `CCc1cccc(C)c1N(C(=O)C(=O)O)C(C)C(=O)O` (stereo not given), 6.84 min; as for `CCc1cccc(C)c1N(C(=O)CS(=O)(=O)O)C(C)C(=O)O` (stereo not given), 10.9 min. As for `CCc1cccc(C)c1NC(=O)CS(=O)(=O)O`, the figure is 5.24 min; as for `CCCN(CCOc1c(Cl)cc(Cl)cc1Cl)C(=O)NC=O`, 11.2 min; as for `CCCNCCOc1c(Cl)cc(Cl)cc1Cl`, 6.99 min.

Regarding `COC(=O)CSP(=S)(OC)OC`, the LC retention time was 7.16 min. Take `CCOP(=O)(OCC)OC(=CCl)c1ccc(Cl)cc1Cl` (mixture of isomers) [Chlorfenvinphos (E/Z) Peak 1 (Main)]: the LC retention time was 11 min.

On to `O=c1cn[nH][nH]1` [1 2 3-triazole-5-OH (1.2.3)], for which the LC retention time was 5.99 min.

With `c1nc[nH]n1` [1,2,4-Triazole], the LC retention time was 1.56 min. As for `O=c1[nH]sc2ccccc12` [1,2-Benzisothiazolinone], the figure is 5.14 min; as for `Cn1cnc2c1c(=O)n(CCCC(=O)O)c(=O)n2C` [1-(3-carboxypropyl)-3,7-dimethylxanthine], 4.48 min; as for `COc1cc(CCN)c(OC)cc1C` [2 C-D], 5.34 min. As for `CCCc1cc(OC)c(CCN)cc1OC` [2 C-P], the figure is 7.46 min. As for `Nc1ccc(S(=O)(=O)O)c(N)c1` [2,4-Diaminobenzenesulfonic acid], the figure is 1.36 min.

In the case of `COc1ccc(OC)c(CC(C)N)c1` (stereo not given) [2-5-DMA], the LC retention time is 4.78 min. With `O=Cc1ccccc1Nc1ccccc1Cl` [2-(2-(Chlorophenyl)amino)benzaldehyde] the figure was 11.4 min. As for `c1ccc2sc(N3CCOCC3)nc2c1` [2-(4-Morpholinyl)benzothiazole], the figure is 8.5 min. As for `C=CC(=O)NC(C)(C)CS(=O)(=O)O` [2-Acrylamido-2-methylpropane sulfonic acid (AMPS)], the figure is 2.8 min. As to `O=S(=O)(O)c1nc2ccccc2s1` [2-Benzothiazolesulfonic acid], the LC retention time was 4.48 min.

On to `COc1cc(CCNCc2ccccc2OC)c(OC)cc1Cl` [2-C-C-NBoMe], for which the LC retention time was 7.34 min. With `NC(=O)N1c2ccccc2C=Cc2cc(O)ccc21` [2-Hydroxycarbamazepine] the figure was 6.03 min; with `COc1nc(C)nc(N)n1` [2-Methyl-4-amino-6-methoxy-s-triazine], 3.71 min. Turning to `c1ccc2sc(SN3CCOCC3)nc2c1` [2-Morpholinothiobenzothiazole], the LC retention time was 9.85 min.

As to `O=S(=O)(O)c1ccc2ccccc2c1` [2-Naphthalin sulfonic acid], the LC retention time was 5.44 min. As for `CCCCCCCCn1sccc1=O` [2-Octyl-4-isothiazolin-3-one], the figure is 10.3 min; as for `CCN(CC)C(=O)C1C=C2c3cccc4c3C(O)(CC2N(C)C1)C(=O)N4` (stereo not given) [2-Oxo-3-hydroxy-LSD], 4.23 min; as for `CCCCOC(=O)COc1ccc(Cl)cc1Cl` [2.4-D-butylester], 11.9 min. As to `COC(=O)COc1ccc(Cl)cc1Cl` [2.4-D-methylester], the LC retention time is 9.61 min. As for `COC(=O)CCCOc1ccc(Cl)cc1Cl` [2.4-DB-methylester], the figure is 11.3 min.

(Values after the RepoRT retention time repository (doi:10.1021/acs.analchem.2c02893).)
